Test results: the NIST ThermoML archive (doi:10.1016/j.tca.2013.03.025)

Assay: refractive index (Na D-line) (dimensionless); xn = mol fraction of the nth substance listed
Conditions: 101 kPa, Liquid, Standard Abbe refractometry

CCCCOC(=O)C(C)O (stereo not given) [butyl 2-hydroxypropanoate] + CC(O)CO
refractive index
Conditions | x1 = 0.0999 | x1 = 0.2 | x1 = 0.3 | x1 = 0.3999 | x1 = 0.4998 | x1 = 0.6 | x1 = 0.6996 | x1 = 0.7999 | x1 = 0.9 | x1 = 1
288.15 K | 1.43214 | 1.43049 | 1.42918 | 1.42809 | 1.42709 | 1.42629 | 1.42548 | 1.42482 | 1.42412 | 1.42379
293.15 K | 1.43038 | 1.42865 | 1.42726 | 1.42611 | 1.42506 | 1.42421 | 1.42336 | 1.42266 | 1.42191 | 1.42152
298.15 K | 1.42861 | 1.42683 | 1.42535 | 1.42414 | 1.42303 | 1.42211 | 1.42124 | 1.42048 | 1.4197 | 1.41925
303.15 K | 1.42682 | 1.42494 | 1.4234 | 1.42214 | 1.42099 | 1.42002 | 1.4191 | 1.41831 | 1.41749 | 1.41697
308.15 K | 1.42503 | 1.42307 | 1.42146 | 1.42013 | 1.41894 | 1.4179 | 1.41696 | 1.41611 | 1.41528 | 1.4147
313.15 K | 1.42323 | 1.42118 | 1.4195 | 1.41814 | 1.41687 | 1.41575 | 1.41482 | 1.41392 | 1.41307 | 1.41241
318.15 K | 1.42143 | 1.41927 | 1.41751 | 1.41605 | 1.41479 | 1.41365 | 1.41265 | 1.41169 | 1.41083 | 1.41006
323.15 K | 1.41962 | 1.4173 | 1.41556 | 1.41404 | 1.41275 | 1.41156 | 1.41049 | 1.4095 | 1.40859 | 1.40778

CCCCOC(=O)C(C)O (stereo not given) [butyl 2-hydroxypropanoate] + OCCCO
refractive index
Conditions | x1 = 0.0999 | x1 = 0.2 | x1 = 0.3001 | x1 = 0.4 | x1 = 0.4999 | x1 = 0.5999 | x1 = 0.6996 | x1 = 0.8001 | x1 = 0.9 | x1 = 1
288.15 K | 1.43875 | 1.43674 | 1.43484 | 1.43308 | 1.43138 | 1.42969 | 1.42809 | 1.42652 | 1.4251 | 1.42379
293.15 K | 1.43724 | 1.4351 | 1.43311 | 1.43126 | 1.42947 | 1.4277 | 1.42602 | 1.42438 | 1.4229 | 1.42152
298.15 K | 1.43568 | 1.43346 | 1.43136 | 1.42942 | 1.42754 | 1.42569 | 1.42396 | 1.42225 | 1.4207 | 1.41925
303.15 K | 1.43417 | 1.4318 | 1.4296 | 1.42758 | 1.42563 | 1.42369 | 1.42187 | 1.4201 | 1.4185 | 1.41697
308.15 K | 1.43265 | 1.43015 | 1.42783 | 1.42571 | 1.42367 | 1.42167 | 1.4198 | 1.41796 | 1.41629 | 1.4147
313.15 K | 1.43112 | 1.42848 | 1.42606 | 1.42385 | 1.42173 | 1.41964 | 1.4177 | 1.41579 | 1.41408 | 1.41241
318.15 K | 1.4296 | 1.42681 | 1.42426 | 1.42197 | 1.41977 | 1.41759 | 1.41556 | 1.41358 | 1.41183 | 1.41006
323.15 K | 1.42813 | 1.42537 | 1.42267 | 1.42009 | 1.41772 | 1.41555 | 1.41347 | 1.41153 | 1.40962 | 1.40778
